pIC50: −log10 of the molar value.
Legend:
[1] = molecular target: T1, Human PDGFRα, cytoplasmic domain (GST-PDGFRα) (Homo sapiens, UniProt P16234); test: Human PDGFRα biochemical inhibition assay (off-chip Mobility Shift Assay)
T1 construct: made in house

[2] = molecular target: T2, Human PDGFRβ, cytoplasmic domain (GST-PDGFRβ) (Homo sapiens, UniProt P09619); test: Human PDGFRβ biochemical inhibition assay (off-chip Mobility Shift Assay)
T2 construct: made in house
Outline: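 GST-tagged cytoplasmic domain (aa 557-1106) from baculovirus was incubated 1 h at room temperature with compound, CSKtide, ATP at Km and Mg²⁺ in HEPES buffer, pH 7.5. Phosphorylated and unphosphorylated peptide were separated by off-chip mobility shift, and the product ratio P/(P+S) gave percent inhibition.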

T1 sequence (P16234 550-1089 T674I): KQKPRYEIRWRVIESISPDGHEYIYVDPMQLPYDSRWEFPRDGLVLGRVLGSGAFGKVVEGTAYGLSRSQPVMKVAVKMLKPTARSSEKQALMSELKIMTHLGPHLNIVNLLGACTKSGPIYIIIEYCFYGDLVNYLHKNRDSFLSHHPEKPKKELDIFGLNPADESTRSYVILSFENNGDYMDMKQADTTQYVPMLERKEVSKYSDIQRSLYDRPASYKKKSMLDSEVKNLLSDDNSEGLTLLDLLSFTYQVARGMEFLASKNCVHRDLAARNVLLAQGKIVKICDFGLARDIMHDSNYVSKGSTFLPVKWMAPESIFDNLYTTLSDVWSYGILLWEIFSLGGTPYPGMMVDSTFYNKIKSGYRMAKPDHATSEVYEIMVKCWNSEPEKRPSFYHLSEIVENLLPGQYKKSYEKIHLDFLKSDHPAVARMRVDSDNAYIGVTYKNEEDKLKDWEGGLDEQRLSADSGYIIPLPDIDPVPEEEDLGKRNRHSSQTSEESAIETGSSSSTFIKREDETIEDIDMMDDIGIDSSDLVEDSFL
T2 sequence (P09619 with tags, fused parts or gaps): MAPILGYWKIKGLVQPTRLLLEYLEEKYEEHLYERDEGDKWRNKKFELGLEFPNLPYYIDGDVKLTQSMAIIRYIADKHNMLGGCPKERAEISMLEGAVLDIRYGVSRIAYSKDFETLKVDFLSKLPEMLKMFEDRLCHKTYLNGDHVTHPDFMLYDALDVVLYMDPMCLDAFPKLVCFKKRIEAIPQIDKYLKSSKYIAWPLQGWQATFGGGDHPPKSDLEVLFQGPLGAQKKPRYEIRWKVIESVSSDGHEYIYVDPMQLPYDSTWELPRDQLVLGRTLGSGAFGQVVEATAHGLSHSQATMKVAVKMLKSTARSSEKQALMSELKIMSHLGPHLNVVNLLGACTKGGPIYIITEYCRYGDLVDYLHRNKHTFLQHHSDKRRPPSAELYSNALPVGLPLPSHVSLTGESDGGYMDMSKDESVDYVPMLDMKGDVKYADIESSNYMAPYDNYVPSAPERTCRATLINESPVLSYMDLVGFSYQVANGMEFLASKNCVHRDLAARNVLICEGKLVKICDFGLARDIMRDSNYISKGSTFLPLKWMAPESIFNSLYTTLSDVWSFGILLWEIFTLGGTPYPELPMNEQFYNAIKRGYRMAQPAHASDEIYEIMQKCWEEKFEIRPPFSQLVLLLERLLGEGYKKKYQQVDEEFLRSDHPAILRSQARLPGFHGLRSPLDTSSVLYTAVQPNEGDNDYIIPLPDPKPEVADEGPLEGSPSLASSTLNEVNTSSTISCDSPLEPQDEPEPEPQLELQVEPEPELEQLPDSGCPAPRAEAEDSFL

SMILES | pIC50 [1] | pIC50 [2]
Cc1cc(C(=O)Nc2cccc([C@H](C)Nc3cnc4cnn(C)c4n3)c2)cnc1Cl [Compound 200, (S)-6-chloro-5-methyl-N-(3-(1-((1-methyl-1H-pyrazolo[3,4-b]pyrazin-6-yl)amino)ethyl)phenyl)nicotinamide] | > 6.52 | > 6.52
C[C@H](Nc1cnc2cnn(C)c2n1)c1cc(NC(=O)c2ccc(C3CC3)nc2)ccc1F [Compound 201, (S)-6-cyclopropyl-N-(4-fluoro-3-(1-((1-methyl-1H-pyrazolo[3,4-b]pyrazin-6-yl)amino)ethyl)phenyl) nicotinamide] | > 6.52 | > 6.52
C[C@H](Nc1cnc2cnn(C)c2n1)c1cc(NC(=O)c2ccc(OC(F)F)nc2)ccc1F [Compound 202, (S)-6-(difluoromethoxy)-N-(4-fluoro-3-(1-((1-methyl-1H-pyrazolo[3,4-b]pyrazin-6-yl)amino)ethyl)phenyl) nicotinamide] | > 6.52 | > 6.52
CC(C)c1ccc(C(=O)Nc2cccc([C@H](C)Nc3cnc4cnn(C)c4n3)c2)cn1 [Compound 204, (S)-6-isopropyl-N-(3-(1-((1-methyl-1H-pyrazolo[3,4-b]pyrazin-6-yl)amino)ethyl)phenyl)nicotinamide] | > 6.52 | > 6.52
Cc1cc(C(=O)Nc2cccc([C@H](C)Nc3cnc4cnn(C)c4n3)c2)cnc1C [Compound 206, (S)-5,6-dimethyl-N-(3-(1-((1-methyl-1H-pyrazolo[3,4-b]pyrazin-6-yl)amino)ethyl)phenyl)nicotinamide] | > 6.52 | > 6.52
COC(=O)c1ccc(C(=O)Nc2cccc([C@H](C)Nc3cnc4cnn(C)c4n3)c2)cc1 [Compound 211, methyl (S)-4-((3-(1-((1-methyl-1H-pyrazolo[3,4-b]pyrazin-6-yl)amino)ethyl)phenyl)carbamoyl) benzoate] | > 6.52 | > 6.52
COC(=O)c1ccc(C(=O)Nc2cccc([C@H](C)Nc3cnc4cnn(C)c4n3)c2)cn1 [Compound 212, methyl (S)-5-((3-(1-((1-methyl-1H-pyrazolo[3,4-b]pyrazin-6-yl)amino)ethyl)phenyl)carbamoyl) picolinate] | 6.00 to 6.52 | ≤ 6.00
C=C(C)c1ncc(C(=O)Nc2cccc([C@H](C)Nc3cnc4cnn(C)c4n3)c2)cc1C [Compound 216, (S)-5-methyl-N-(3-(1-((1-methyl-1H-pyrazolo[3,4-b]pyrazin-6-yl)amino)ethyl)phenyl)-6-(prop-1-en-2-yl) nicotinamide] | > 6.52 | > 6.52
CSc1ccc(C(=O)Nc2cccc([C@H](C)Nc3cnc4cnn(C)c4n3)c2)cn1 [Compound 218, (S)-N-(3-(1-((1-methyl-1H-pyrazolo[3,4-b]pyrazin-6-yl)amino)ethyl)phenyl)-6-(methylthio)nicotinamide] | > 6.52 | > 6.52
CSc1ccc(C(=O)Nc2cccc([C@H](C)Nc3cnc4cnn(C)c4n3)c2)cc1 [Compound 219, (S)-N-(3-(1-((1-methyl-1H-pyrazolo[3,4-b]pyrazin-6-yl)amino)ethyl)phenyl)-4-(methylthio)benzamide] | > 6.52 | > 6.52
CSc1ccc(C(=O)Nc2cccc([C@H](C)Nc3cnc4cnn(C)c4n3)c2)cc1C [Compound 222, (S)-3-methyl-N-(3-(1-((1-methyl-1H-pyrazolo[3,4-b]pyrazin-6-yl)amino)ethyl)phenyl)-4-(methylthio)benzamide] | > 6.52 | > 6.52
CSc1ncc(C(=O)Nc2cccc([C@H](C)Nc3cnc4cnn(C)c4n3)c2)cc1C [Compound 223, (S)-5-methyl-N-(3-(1-((1-methyl-1H-pyrazolo[3,4-b]pyrazin-6-yl)amino)ethyl)phenyl)-6-(methylthio)nicotinamide] | > 6.52 | > 6.52
C[C@H](Nc1cnc2cnn(C)c2n1)c1cccc(NC(=O)c2cncc(S(C)(=O)=O)c2)c1 [Compound 227, (S)-N-(3-(1-((1-methyl-1H-pyrazolo[3,4-b]pyrazin-6-yl)amino)ethyl)phenyl)-5-(methylsulfonyl)nicotinamide] | > 6.52 | > 6.52
Cc1cc(C(=O)Nc2ccc(F)c([C@H](C)Nc3cnc4cnn(C)c4n3)c2)ccc1CN1CCN(C)CC1 [Compound 228, (S)-N-(4-fluoro-3-(1-((1-methyl-1H-pyrazolo[3,4-b]pyrazin-6-yl)amino)ethyl)phenyl)-3-methyl-4-((4-methylpiperazin-1-yl)methyl)benzamide] | > 6.52 | > 6.52
Cc1cc(C(=O)Nc2cccc([C@H](C)Nc3cnc4cnn(C)c4n3)c2)cnc1OCC(C)C [Compound 229, (S)-6-isobutoxy-5-methyl-N-(3-(1-((1-methyl-1H-pyrazolo[3,4-b]pyrazin-6-yl)amino)ethyl)phenyl)nicotinamide] | > 6.52 | > 6.52
CCOCc1cncc(C(=O)Nc2cccc([C@H](C)Nc3cnc4cnn(C)c4n3)c2)c1 [Compound 230, (S)-5-(ethoxymethyl)-N-(3-(1-((1-methyl-1H-pyrazolo[3,4-b]pyrazin-6-yl)amino)ethyl)phenyl)nicotinamide] | > 6.52 | > 6.52

Continued, values first:

pIC50 [1] | pIC50 [2] | SMILES
> 6.52 | > 6.52 | COC(=O)c1ccc(C(=O)Nc2cccc([C@H](C)Nc3cnc4cnn(C)c4n3)c2)cc1C [Compound 199, methyl (S)-2-methyl-4-((3-(1-((1-methyl-1H-pyrazolo[3,4-b]pyrazin-6-yl)amino)ethyl)phenyl)carbamoyl)benzoate]
> 6.52 | > 6.52 | COc1ccc(C(=O)Nc2cccc([C@H](C)Nc3cnc4cnn(C)c4n3)c2)cc1OC [Compound 203, (S)-3,4-dimethoxy-N-(3-(1-((1-methyl-1H-pyrazolo[3,4-b]pyrazin-6-yl)amino)ethyl)phenyl)benzamide]
> 6.52 | > 6.52 | COc1cc(C(=O)Nc2cccc([C@H](C)Nc3cnc4cnn(C)c4n3)c2)cnc1OC [Compound 205, (S)-5,6-dimethoxy-N-(3-(1-((1-methyl-1H-pyrazolo[3,4-b]pyrazin-6-yl)amino)ethyl)phenyl)nicotinamide]
> 6.52 | > 6.52 | CCc1ccc(C(=O)Nc2cccc([C@H](C)Nc3cnc4cnn(C)c4n3)c2)cn1 [Compound 207, (S)-6-ethyl-N-(3-(1-((1-methyl-1H-pyrazolo[3,4-b]pyrazin-6-yl)amino)ethyl)phenyl) nicotinamide]
> 6.52 | > 6.52 | Cc1cc(C(=O)Nc2cccc([C@H](C)Nc3cnc4cnn(C)c4n3)c2)ccc1CN1CCN(C)CC1 [Compound 208, (S)-3-methyl-N-(3-(1-((1-methyl-1H-pyrazolo[3,4-b]pyrazin-6-yl)amino)ethyl)phenyl)-4-((4-methylpiperazin-1-yl)methyl)benzamide]
> 6.52 | > 6.52 | Cc1cc(C(=O)Nc2cccc([C@H](C)Nc3cnc4cnn(C)c4n3)c2)ccc1CN1CCOCC1 [Compound 209, (S)-3-methyl-N-(3-(1-((1-methyl-1H-pyrazolo[3,4-b]pyrazin-6-yl)amino)ethyl)phenyl)-4-(morpholinomethyl) benzamide]
> 6.52 | > 6.52 | COc1ccc(C(=O)Nc2cccc([C@H](C)Nc3cnc4cnn(C)c4n3)c2)cc1C [Compound 210, (S)-4-methoxy-3-methyl-N-(3-(1-((1-methyl-1H-pyrazolo[3,4-b]pyrazin-6-yl)amino)ethyl)phenyl)benzamide]
> 6.52 | > 6.52 | C[C@H](Nc1cnc2cnn(C)c2n1)c1cc(NC(=O)c2cnn(C3CCC3)c2)ccc1F [Compound 213, (S)-1-cyclobutyl-N-(4-fluoro-3-(1-((1-methyl-1H-pyrazolo[3,4-b]pyrazin-6-yl)amino)ethyl)phenyl)-1H-pyrazole-4-carboxamide]
> 6.52 | > 6.52 | CC(=O)Oc1ccc(C(=O)Nc2cccc([C@H](C)Nc3cnc4cnn(C)c4n3)c2)cc1 [Compound 214, (S)-4-((3-(1-((1-methyl-1H-pyrazolo[3,4-b]pyrazin-6-yl)amino)ethyl)phenyl)carbamoyl) phenyl acetate]
> 6.52 | > 6.52 | CC(=O)Oc1cccc(C(=O)Nc2cccc([C@H](C)Nc3cnc4cnn(C)c4n3)c2)c1 [Compound 215, (S)-3-((3-(1-((1-methyl-1H-pyrazolo[3,4-b]pyrazin-6-yl)amino)ethyl)phenyl)carbamoyl) phenyl acetate]
> 6.52 | 6.00 to 6.52 | C[C@H](Nc1cnc2cnn(C)c2n1)c1cccc(NC(=O)c2ccc(S(C)(=O)=O)cc2)c1 [Compound 220, (S)-N-(3-(1-((1-methyl-1H-pyrazolo[3,4-b]pyrazin-6-yl)amino)ethyl)phenyl)-4-(methylsulfonyl)benzamide]
> 6.52 | > 6.52 | C[C@H](Nc1cnc2cnn(C)c2n1)c1cccc(NC(=O)c2ccc(S(C)(=O)=O)nc2)c1 [Compound 221, (S)-N-(3-(1-((1-methyl-1H-pyrazolo[3,4-b]pyrazin-6-yl)amino)ethyl)phenyl)-6-(methylsulfonyl)nicotinamide]
> 6.52 | > 6.52 | CSc1cccc(C(=O)Nc2cccc([C@H](C)Nc3cnc4cnn(C)c4n3)c2)c1 [Compound 224, (S)-N-(3-(1-((1-methyl-1H-pyrazolo[3,4-b]pyrazin-6-yl)amino)ethyl)phenyl)-3-(methylthio)benzamide]
> 6.52 | > 6.52 | C[C@H](Nc1cnc2cnn(C)c2n1)c1cccc(NC(=O)c2cccc(S(C)(=O)=O)c2)c1 [Compound 226, (S)-N-(3-(1-((1-methyl-1H-pyrazolo[3,4-b]pyrazin-6-yl)amino)ethyl)phenyl)-3-(methylsulfonyl)benzamide]
> 6.52 | > 6.52 | Cc1cc(C(=O)Nc2cccc([C@H](C)Nc3cnc4cnn(C)c4n3)c2)cnc1C(C)C [Compound 231, (S)-6-isopropyl-5-methyl-N-(3-(1-((1-methyl-1H-pyrazolo[3,4-6]pyrazin-6-yl)amino)ethyl)phenyl)nicotinamide]

Source: patent publication US20230102554A1 (GB002, INC., priority 2019, published 2023)
